Results published in patent US20100267561A1, “HERBICIDAL PYRIDAZINONE DERIVATIVES” (priority 2007, published 2010).

What was measured:
Assay type in all cases: in vivo
[1] = system: goosegrass (Eleusine indica); assay: Test B pre-/postemergence plant response
Procedure, shortened: (§1)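 Visual scoring from 0 (no effect) to 100 (complete control) against untreated controls was done 13 to 15 days after greenhouse treatment. Chemicals were formulated in a surfactant-containing non-phytotoxic solvent and applied to soil preemergence or to 1- to 4-leaf (2-18 cm) plants postemergence.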

[2] = system: lambsquarters (Chenopodium album); assay: Test B pre-/postemergence plant response; details: for Lambsquarters plant response rating: postemergence, 0-100 scale; for Plant response rating, Lambsquarters: Postemergence
Procedure, shortened: as §1

[3] = system: large crabgrass (Digitaria sanguinalis); assay: Test B pre-/postemergence plant response
Procedure, shortened: as §1

[4] = system: bermudagrass (Cynodon dactylon); assay: Test B pre-/postemergence plant response; details: for Bermudagrass plant response rating: 8 g ai/ha
Procedure, shortened: as §1

[5] = system: cocklebur (Xanthium strumarium); assay: Test B pre-/postemergence plant response; details: for Cocklebur plant response rating: 8 g ai/ha
Procedure, shortened: as §1

[6] = system: common (oilseed) sunflower (Helianthus annuus); assay: Test B pre-/postemergence plant response; details: Preemergence; for Sunflower plant response rating: scale 0 to 100
Procedure, shortened: as §1

soybean (Glycine max) = assay: Test B pre-/postemergence plant response
Procedure, shortened: as §1

[7] = system: surinam grass (Brachiaria decumbens); assay: Test B pre-/postemergence plant response
Procedure, shortened: as §1

corn (Zea mays) = assay: Test B pre-/postemergence plant response
Procedure, shortened: as §1

kochia (Kochia scoparia) = assay: Test B pre-/postemergence plant response; details: for Kochia plant response rating: postemergence, 0-100 scale; for Plant response rating, Kochia: Postemergence
Procedure, shortened: as §1

[8] = system: common ragweed (Ambrosia elation); assay: Test B pre-/postemergence plant response
Procedure, shortened: as §1

[9] = system: wheat (Triticum aestivum); assay: Test B pre-/postemergence plant response
Procedure, shortened: as §1

[10] = system: Russian thistle (Salsola iberica); assay: Test B pre-/postemergence plant response; details: Preemergence; for Russian Thistle plant response rating: scale 0 to 100
Procedure, shortened: as §1

[11] = system: ducksalad (Heteranthera limosa); assay: Test B flooded paddy test plant response
Procedure, shortened: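 Compounds were added directly to paddy water over 2-leaf-stage plants in pots flooded 3 cm above soil, water depth maintained. Visual injury scored against controls after 13 to 15 days in greenhouse, 0 (none) to 100 (complete control); dash indicates no result.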

[12] = 8 g ai/ha, postemergence, 0-100 scale
[13] = 16 g ai/ha, postemergence, 0-100 scale
[14] = Postemergence, 31 g ai/ha, scale 0 to 100
[15] = Postemergence, 62 g ai/ha, scale 0 to 100, 0 no effect, 100 complete control
[16] = Preemergence, 31 g ai/ha, scale 0 to 100 (0 no effect, 100 complete control)
[17] = Preemergence, 62 g ai/ha, 0 to 100 scale, 0 no effect, 100 complete control
[18] = Preemergence, 8 g ai/ha, scale 0 to 100
[19] = Preemergence, 16 g ai/ha, scale 0 to 100
[20] = 62 g ai/ha, scale 0 to 100, 0 no effect, 100 complete control
[21] = Postemergence, 16 g ai/ha, scale 0 to 100
[22] = Preemergence, 16 g ai/ha, scale 0 to 100 (0 no effect, 100 complete control)
[23] = 31 g ai/ha, scale 0 to 100 (0 no effect, 100 complete control)
[24] = 62 g ai/ha, 0 to 100 scale, 0 no effect, 100 complete control

SMILES: CCc1cc(-c2ccc(C(F)(F)F)cc2)nn1-c1c(O)c(OC)nn(C)c1=O [Compound 66]
- Goosegrass plant response rating [1, 12]: 70
- Goosegrass plant response rating [1, 13]: 75
- Plant response rating, Goosegrass [1, 14]: 85
- Plant response rating, Goosegrass [1, 15]: 98
- Plant response rating, Goosegrass [1, 16]: 25
- Plant response rating, Goosegrass [1, 17]: 70
- Goosegrass plant response rating [1, 18]: 0
- Goosegrass plant response rating [1, 19]: 0
- Lambsquarters plant response rating ([2]; 8 g ai/ha): 0
- Lambsquarters plant response rating ([2]; 16 g ai/ha): 0
- Plant response rating, Lambsquarters ([2]; 31 g ai/ha, scale 0 to 100): 0
- Plant response rating, Lambsquarters [2, 20]: 0
- Crabgrass, Large plant response rating [3, 12]: 70
- Plant response rating, Crabgrass, Large [3, 21]: 85
- Plant response rating, Crabgrass, Large [3, 14]: 98
- Plant response rating, Crabgrass, Large [3, 15]: 100
- Plant response rating, Crabgrass, Large [3, 16]: 60
- Plant response rating, Crabgrass, Large [3, 17]: 80
- Crabgrass, Large plant response rating [3, 18]: 0
- Crabgrass, Large plant response rating [3, 19]: 0
- Bermudagrass plant response rating ([4]; postemergence, 0-100 scale): 20
- Plant response rating, Bermudagrass [4, 21]: 98
- Plant response rating, Bermudagrass [4, 14]: 100
- Plant response rating, Bermudagrass [4, 15]: 100
- Bermudagrass plant response rating ([4]; Preemergence, scale 0 to 100 (0 no effect, 100 complete control)): 0
- Plant response rating, Bermudagrass [4, 22]: 85
- Plant response rating, Bermudagrass [4, 16]: 98
- Plant response rating, Bermudagrass [4, 17]: 100
- Cocklebur plant response rating ([5]; postemergence, 0-100 scale): 0
- Plant response rating, Cocklebur [5, 21]: 0
- Plant response rating, Cocklebur [5, 14]: 0
- Plant response rating, Cocklebur [5, 15]: 0
- Plant response rating, Cocklebur [5, 22]: 0
- Plant response rating, Cocklebur [5, 16]: 0
- Plant response rating, Cocklebur [5, 17]: 0
- Cocklebur plant response rating ([5]; Preemergence, scale 0 to 100): 0
- Plant response rating, Sunflower [6, 23]: 0
- Plant response rating, Sunflower [6, 24]: 0
- Sunflower plant response rating ([6]; 8 g ai/ha): 0
- Sunflower plant response rating ([6]; 16 g ai/ha): 0
- Soybean plant response rating (soybean (Glycine max); [12]): 0
- Soybean plant response rating (soybean (Glycine max); [13]): 0
- Plant response rating, Soybean (soybean (Glycine max); [14]): 0
- Plant response rating, Soybean (soybean (Glycine max); [15]): 0
- Plant response rating, Soybean (soybean (Glycine max); [16]): 0
- Plant response rating, Soybean (soybean (Glycine max); [17]): 0
- Soybean plant response rating (soybean (Glycine max); [18]): 0
- Soybean plant response rating (soybean (Glycine max); [19]): 0
- Surinam Grass plant response rating [7, 12]: 95
- Surinam Grass plant response rating [7, 13]: 98
- Plant response rating, Surinam Grass [7, 14]: 100
- Plant response rating, Surinam Grass [7, 15]: 100
- Plant response rating, Surinam Grass [7, 16]: 98
- Plant response rating, Surinam Grass [7, 17]: 98
- Surinam Grass plant response rating [7, 18]: 0
- Surinam Grass plant response rating [7, 19]: 80
- Corn plant response rating (corn (Zea mays); [12]): 65
- Plant response rating, Corn (corn (Zea mays); [21]): 75
- Plant response rating, Corn (corn (Zea mays); [14]): 90
- Plant response rating, Corn (corn (Zea mays); [15]): 100
- Plant response rating, Corn (corn (Zea mays); [16]): 98
- Plant response rating, Corn (corn (Zea mays); [17]): 100
- Corn plant response rating (corn (Zea mays); [18]): 0
- Corn plant response rating (corn (Zea mays); [19]): 70
- Kochia plant response rating (kochia (Kochia scoparia); 8 g ai/ha): 0
- Kochia plant response rating (kochia (Kochia scoparia); 16 g ai/ha): 0
- Plant response rating, Kochia (kochia (Kochia scoparia); 31 g ai/ha, scale 0 to 100): 0
- Plant response rating, Kochia (kochia (Kochia scoparia); [20]): 0
- Ragweed plant response rating [8, 12]: 0
- Ragweed plant response rating [8, 13]: 0
- Plant response rating, Ragweed [8, 14]: 0
- Plant response rating, Ragweed [8, 15]: 0
- Plant response rating, Ragweed [8, 17]: 0
- Ragweed plant response rating [8, 18]: 0
- Ragweed plant response rating [8, 19]: 0
- Wheat plant response rating [9, 12]: 95
- Wheat plant response rating [9, 13]: 100
- Plant response rating, Wheat [9, 14]: 100
- Plant response rating, Wheat [9, 15]: 100
- Plant response rating, Wheat [9, 16]: 95
- Plant response rating, Wheat [9, 17]: 95
- Wheat plant response rating [9, 19]: 90
- Plant response rating, Russian Thistle [10, 23]: 0
- Plant response rating, Russian Thistle [10, 24]: 0
- Russian Thistle plant response rating ([10]; 8 g ai/ha): 0
- Russian Thistle plant response rating ([10]; 16 g ai/ha): 0
- Plant response rating, Ducksalad ([11]; Flood (flooded paddy test), 62 g ai/ha, scale 0 to 100, 0 no effect, 100 complete control): 0
- Plant response rating, Ducksalad ([11]; Flood (flooded paddy test), 125 g ai/ha, scale 0 to 100, 0 no effect, 100 complete control): 0
- Plant response rating, Ducksalad ([11]; Flood (flooded paddy test), 250 g ai/ha, scale 0 to 100, 0 no effect, 100 complete control): 0
- Plant response rating, Ducksalad ([11]; Flood, 31 g ai/ha, scale 0 to 100): 0
